Assays:
[1] = system: HCV replicon in human hepatoma Huh-7 cell line; experiment: Anti-HCV replicon assay (EC50, luciferase); format: cell-based
Summary of the method: (§1)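 Cytotoxicity (CC50) measured by CellTiter-Glo and antiviral activity (EC50) by luciferase signal from lysed cells, both by luminescence. Replicon-bearing Huh-7 cells, 6000 per well, incubated 3 days at 37 °C with threefold-diluted compound (0.5% DMSO for DMSO-dissolved compounds).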

[2] = system: Huh-7 HCV replicon cells; experiment: CC50 assay (CellTiter-Glo) in Huh-7 HCV replicon cells; format: cell-based, human; settings: 3 days incubation, CellTiter-Glo readout
Summary of the method: as §1

[3] = as above; format: cell-based, human; settings: human, 3 days incubation, CellTiter-Glo readout
Summary of the method: as §1

[4] = Huh-7 HCV replicon cells, 3 days incubation, luciferase readout

Compound	EC50 [1, 4] [µM]	CC50 [2] [µM]	EC50 ([1]; Hepatitis C virus, Huh-7, 72 h) [µM]	CC50 at 3 days [3] [µM]
CC(Nc1nc(NCC(F)(F)F)c2nc(-c3ccc(F)cc3)ccc2n1)c1ccc(S(N)(=O)=O)cc1 (centres unmarked) [Example 250, 4-{1-[6-(4-Fluoro-phenyl)-4-(2,2,2-trifluoro-ethylamino)-pyrido[3,2-d]pyrimidin-2-ylamino]-ethyl}-benzenesulfonamide]	< 0.1	< 5	–	–
CC(Nc1nc(NCC(F)(F)F)c2nc(-c3ccc(F)cc3)ccc2n1)c1ccc(S(N)(=O)=O)cc1 (centres unmarked) [Example 257, 4-{1-[6-(4-Fluoro-phenyl)-4-(2,2,2-trifluoro-ethylamino)-pyrido[3,2-d]pyrimidin-2-ylamino]-ethyl}-benzenesulfonamide]	< 0.1	5 to 25	–	–
NS(=O)(=O)c1ccc(CNc2nc(NCC(F)(F)F)c3nc(-n4cncn4)ccc3n2)cc1 [Example 285, 4-{[6-[1,2,4]Triazol-1-yl-4-(2,2,2-trifluoro-ethylamino)-pyrido[3,2-d]pyrimidin-2-ylamino]-methyl}-benzenesulfonamide]	–	–	< 0.1	> 25
NS(=O)(=O)c1ccc(CNc2nc(NCC(F)(F)F)c3nc(-n4ccnc4)ccc3n2)cc1 [Example 286, 4-{[6-Imidazol-1-yl-4-(2,2,2-trifluoro-ethylamino)-pyrido[3,2-d]pyrimidin-2-ylamino]-methyl}-benzenesulfonamide]	–	–	< 0.1	5 to 25
NS(=O)(=O)c1ccc(CNc2nc(NCC(F)(F)F)c3nc(-c4ccc(=O)[nH]c4)ccc3n2)cc1 [Example 287, 4-{[6-(6-Oxo-1,6-dihydro-pyridin-3-yl)-4-(2,2,2-trifluoro-ethylamino)-pyrido[3,2-d]pyrimidin-2-ylamino]-methyl}-benzenesulfonamide]	–	–	< 0.1	> 25
NS(=O)(=O)c1ccc(CNc2nc(NCC(F)(F)F)c3nc(-c4cc[nH]c(=O)c4)ccc3n2)cc1 [Example 288, 4-{[6-(2-Oxo-1,2-dihydro-pyridin-4-yl)-4-(2,2,2-trifluoro-ethylamino)-pyrido[3,2-d]pyrimidin-2-ylamino]-methyl}-benzenesulfonamide]	–	–	< 0.1	> 25
NS(=O)(=O)c1ccc(CNc2nc(C3CC3)c3nc(-c4ccc(F)c(S(N)(=O)=O)c4)ccc3n2)cc1 [Example 289, 5-[4-Cyclopropyl-2-(4-sulfamoyl-benzylamino)-pyrido[3,2-d]pyrimidin-6-yl]-2-fluoro-benzenesulfonamide]	–	–	< 0.1	5 to 25
NC(=O)Nc1ccc(-c2ccc3nc(NCc4ccc(S(N)(=O)=O)cc4)nc(C4CC4)c3n2)cc1 [Example 290, 4-{[4-Cyclopropyl-6-(4-ureido-phenyl)-pyrido[3,2-d]pyrimidin-2-ylamino]-methyl}-benzenesulfonamide]	–	–	< 0.1	5 to 25
NS(=O)(=O)c1ccc(CNc2nc(C3CC3)c3nc(-c4cccc(S(N)(=O)=O)c4)ccc3n2)cc1 [Example 291, 4-{[4-Cyclopropyl-6-(3-(aminosulfonyl)-phenyl)-pyrido[3,2-d]pyrimidin-2-ylamino]-methyl}-benzenesulfonamide]	–	–	< 0.1	< 5
NC(=O)c1ccc(-c2ccc3nc(NCc4ccc(S(N)(=O)=O)cc4)nc(C4CC4)c3n2)cc1 [Example 292, 4-[4-Cyclopropyl-2-(4-sulfamoyl-benzylamino)-pyrido[3,2-d]pyrimidin-6-yl]-benzamide]	–	–	< 0.1	5 to 25
NS(=O)(=O)c1ccc(CNc2nc(C3CC3)c3nc(-c4ccc(C(=O)NC5CC5)cc4)ccc3n2)cc1 [Example 293, N-Cyclopropyl-4-[4-cyclopropyl-2-(4-sulfamoyl-benzylamino)-pyrido[3,2-d]pyrimidin-6-yl]-benzamide]	–	–	< 0.1	< 5
NS(=O)(=O)c1ccc(CNc2nc(C3CC3)c3nc(-c4ccc(F)cc4)ccc3n2)cc1 [Example 294, 4-{[4-Cyclopropyl-6-(4-fluoro-phenyl)-pyrido[3,2-d]pyrimidin-2-ylamino]-methyl}-benzenesulfonamide]	–	–	< 0.1	< 5
CCCc1nc(NCc2ccc(F)cc2)nc2ccc(-c3ccc(NC(=O)C(C)(C)N)cc3)nc12 [Example 295, 2-Amino-N-{4-[2-(4-fluoro-benzylamino)-4-propyl-pyrido[3,2-d]pyrimidin-6-yl]-phenyl}-2-methyl-propionamide]	–	–	< 0.1	> 25
NS(=O)(=O)c1ccc(CNc2nc(NC3CC3)c3nc(-c4ccc(F)cc4)ccc3n2)cc1 [Example 296, 4-{[4-Cyclopropylamino-6-(4-fluoro-phenyl)-pyrido[3,2-d]pyrimidin-2-ylamino]-methyl}-benzenesulfonamide]	–	–	< 0.1	> 25
CCNc1nc(NCc2ccc(S(N)(=O)=O)cc2)nc2ccc(-c3ccc(F)cc3)nc12 [Example 297, 4-{[4-Ethylamino-6-(4-fluoro-phenyl)-pyrido[3,2-d]pyrimidin-2-ylamino]-methyl}-benzenesulfonamide]	–	–	< 0.1	< 5
Fc1ccc(CNc2nc(N[C@@H]3CCOC3)c3nc(-c4ccc(F)cc4)ccc3n2)cc1 [Example 298, N2-(4-Fluoro-benzyl)-6-(4-fluoro-phenyl)-N4-(tetrahydro-furan-3-yl)-pyrido[3,2-d]pyrimidine-2,4-diamine]	–	–	< 0.1	5 to 25
CS(=O)(=O)CCNc1nc(NCc2ccc(F)cc2)nc2ccc(-c3ccc(F)cc3)nc12 [Example 299, N2-(4-Fluoro-benzyl)-6-(4-fluoro-phenyl)-N4-(2-methanesulfonyl-ethyl)-pyrido[3,2-d]pyrimidine-2,4-diamine]	–	–	< 0.1	5 to 25
CC1(Oc2nc(NCc3ccc(S(N)(=O)=O)cc3)nc3ccc(-c4ccc(F)cc4)nc23)CC1 [Example 301, 4-{[6-(4-Fluoro-phenyl)-4-(1-methyl-cyclopropoxy)-pyrido[3,2-d]pyrimidin-2-ylamino]-methyl}-benzenesulfonamide]	–	–	< 0.1	< 5
N#CC1(Nc2nc(NCc3ccc(S(N)(=O)=O)cc3)nc3ccc(-c4ccc(F)cc4)nc23)CC1 [Example 303, 4-{[4-(1-Cyano-cyclopropylamino)-6-(4-fluoro-phenyl)-pyrido[3,2-d]pyrimidin-2-ylamino]-methyl}-benzenesulfonamide]	–	–	< 0.1	5 to 25

From patent US8729089B2 (Gilead Sciences, Inc., priority 2006, dated 2014)
